Experimental data from patent publication US4847272A, “Thianaphthene derivatives” (Sankyo Company Limited, priority 1986, dated 1989).
Structures can show the parent of a compound that is named as a salt.

Experiments:
[1] = target: T1, Thromboxane A2 Synthetase (Oryctolagus cuniculus, UniProt G1TAZ9); test: Inhibition of Thromboxane A2 Synthetase, rabbit platelet microsomes; assay type: biochemical; conditions: 1-[14C] arachidonic acid 0.1 mM, 1 minute at 22° C., read-out: IC50, concentration required to inhibit the activity of thromboxane synthetase by 50%
T1 construct: The platelet microsome fraction was separated from rabbit and from human blood; from tissue; host or cells: rabbit blood platelets, microsome fraction
T1 sequence (G1TAZ9 1-530): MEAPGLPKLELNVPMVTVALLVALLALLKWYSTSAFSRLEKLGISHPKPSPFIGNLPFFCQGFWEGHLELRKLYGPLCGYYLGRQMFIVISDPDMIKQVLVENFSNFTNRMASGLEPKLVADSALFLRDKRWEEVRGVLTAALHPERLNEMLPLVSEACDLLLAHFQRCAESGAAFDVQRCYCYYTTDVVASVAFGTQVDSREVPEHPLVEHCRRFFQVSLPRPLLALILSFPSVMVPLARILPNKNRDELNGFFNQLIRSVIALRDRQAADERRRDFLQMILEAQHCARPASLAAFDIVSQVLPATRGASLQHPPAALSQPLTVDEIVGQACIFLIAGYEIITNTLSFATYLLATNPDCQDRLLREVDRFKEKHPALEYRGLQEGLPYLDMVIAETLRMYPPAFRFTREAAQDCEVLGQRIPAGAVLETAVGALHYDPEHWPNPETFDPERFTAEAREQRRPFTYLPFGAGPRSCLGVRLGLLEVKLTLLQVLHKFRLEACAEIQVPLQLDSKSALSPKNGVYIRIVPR
Procedure: (§1) The platelet microsome fraction was separated from rabbit and from human blood by the method of Needleman et al. [Needleman et al., Science, 193, 163 (1976)]. The microsomal TXA2 synthetase activity in the presence of various of the compounds of the invention at various concentrations was assayed by a modification of the method of […] et al. [[…] et al., Prostaglandins, 21, 543 (1981)] by incubating the microsome fractions with labelled 1-[^14 C] arachidonic acid at a concentration of 0.1 mM for 1 minute at 22° C., to a final volume of 0.2 ml. The reaction was terminated by the addition of […] of 0.2M citric acid, and then the mixture was extracted with 1.5 ml of ethyl acetate. […] The developing solvent for the chromatography was a 90:8:1:0.8 by volume mixture of chloroform, methanol, acetic acid and water. […] The results are shown in the following Tables 1 and 2 as the IC50, i.e. the concentration required to inhibit the activity of thromboxane synthetase by 50%. The results using rabbits platelet microsomes are given in Table 1, whilst the results using human platelet microsomes are given in Table 2.

[2] = target: T2, Thromboxane A2 Synthetase (Homo sapiens, UniProt P24557); test: Inhibition of Thromboxane A2 Synthetase, human platelet microsomes; assay type: biochemical; conditions: 1-[14C] arachidonic acid 0.1 mM, 1 minute at 22° C., read-out: IC50, concentration required to inhibit the activity of thromboxane synthetase by 50%
T2 construct: The platelet microsome fraction was separated from rabbit and from human blood; from tissue; host or cells: human blood platelets, microsome fraction
T2 sequence (P24557 1-533): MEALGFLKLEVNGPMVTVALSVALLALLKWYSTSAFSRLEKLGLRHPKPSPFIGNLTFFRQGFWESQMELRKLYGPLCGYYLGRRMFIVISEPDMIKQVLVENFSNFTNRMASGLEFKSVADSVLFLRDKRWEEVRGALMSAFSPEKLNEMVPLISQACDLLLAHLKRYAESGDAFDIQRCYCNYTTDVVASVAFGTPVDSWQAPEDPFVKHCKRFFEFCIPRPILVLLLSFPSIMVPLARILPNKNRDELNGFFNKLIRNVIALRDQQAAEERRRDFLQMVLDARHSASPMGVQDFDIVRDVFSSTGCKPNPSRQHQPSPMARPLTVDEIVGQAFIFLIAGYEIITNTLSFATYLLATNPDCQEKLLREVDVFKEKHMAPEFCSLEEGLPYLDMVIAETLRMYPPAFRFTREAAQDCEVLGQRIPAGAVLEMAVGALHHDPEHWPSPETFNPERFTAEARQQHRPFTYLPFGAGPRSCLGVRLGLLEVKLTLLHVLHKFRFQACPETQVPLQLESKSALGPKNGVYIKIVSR
Procedure: as §1

rabbits = test: Antithrombotic Activity in Rabbits (sudden death after i.v. arachidonic acid); assay type: in vivo, male Japanese white rabbits; conditions: Oryctolagus cuniculus, 1 h; oral, one hour before 1.3 mg/kg arachidonic acid i.v.; Probit's method
Procedure: This test was carried out by a modification of the method of Silver et al. [Science, 183, 1085 (1974)]. The test animals used were male Japanese white rabbits of approximately 3 kg body weight. Each group of rabbits was administered orally the test compound at an appropriate dose and then, one hour after the oral administration, each was given 1.3 mg/kg of arachidonic acid by intravenous injection. The test animals were observed and sudden deaths during the test period were recorded. The ED50 was determined by Probit's method. Unmedicated rabbits were employed as a control, without administering any test compound, but these were all dead within several minutes after the injection of arachidonic acid, as a result of pulmonary thromboembolisms.

IC50 [1] | IC50 [2] | Structure (SMILES) | ED50 (rabbits)
26 nM | 30 nM | O=C(O)C1CCc2cc(Cn3ccnc3)sc2C1 (stereo not drawn) [Compound A, 4,5,6,7-tetrahydro-2-(1-imidazolyl)methylthianaphthene-6-carboxylic acid hydrochloride] | 0.27 mg/kg
13 nM | 31 nM | O=C(O)C1=Cc2sc(Cn3ccnc3)cc2CC1 [Compound B, sodium 4,5-dihydro-2-(1-imidazolyl)methylthianaphthene-6-carboxylate] | 0.12 mg/kg
86 nM |  | O=C(O)C1CCc2sc(Cn3ccnc3)cc2C1 (stereo not drawn) [Compound C, 4,5,6,7-tetrahydro-2-(1-imidazolyl)methylthianaphthene-5-carboxylic acid hydrochloride] | 
106 nM |  | Cl.O=C(O)c1ccc(OCCn2ccnc2)cc1 [Dazoxiben, 4-[2-(1-imidazolyl)ethoxy]benzoic acid hydrochloride, reference compound] | 1.1 mg/kg
